{
  "source": "patent US12122854B2",
  "about": "“Graft copolymer and preparation method and use thereof” (ANHUI AGRICULTURAL UNIVERSITY, priority 2022, dated 2024)",
  "key": {"[1]": {"experiment": "DPPH free radical scavenging rate", "type": "biochemical", "details": "30 min", "method": "The scavenging rate of EPSF-starch on DPPH free radicals was measured as follows: The N-ethyl-2-pyrrolidinone-substituted flavan-3-ol (EPSF) in Example 1 and EGCG in Comparative Example 1 were uniformly dispersed in methanol separately, obtaining dispersions with mass concentrations of 2 μg/mL, 4 μg/mL, 6 μg/mL, 8 μg/mL, 10 μg/mL and 12 μg/mL. The corn starch and EPSF-starch in Example 1, as well as the EGCG-starch in Comparative Example 1, were uniformly dispersed in methanol to obtain dispersions with mass concentrations of 0.156 mg/mL, 0.313 mg/mL, 0.625 mg/mL, 1.25 mg/mL, and 2.50 mg/mL. 2 mL of the above sample dispersions were pipetted in sequence into test tubes, and 2.0 mL of a DPPH solution (0.2 mmol/L, which was prepared with methanol) was added thereto, respectively. The resulting mixture was shaken well, and reacted at ambient temperature in dark for 30 minutes. The absorbance A1 thereof was then measured at 517 nm. Meanwhile, DPPH solution was replaced with an equal amount of methanol solution, and the absorbance A2 thereof was measured according to the above method. The absorbance A0 of a mixture of 2.0 mL of methanol and 2.0 mL of DPPH solution was measured. Experiments of each group were repeated three times, and the DPPH free radical scavenging rate of EPSF-starch was calculated according to Equation 1.\n[formula] • where A0 represents the absorbance of the mixture of methanol and DPPH solution; A1 represents the absorbance of a mixture of the sample dispersion and DPPH free radical solution; and A2 represents the absorbance of a mixture of the sample dispersion and methanol."}, "[2]": {"experiment": "ABTS free radical scavenging rate", "type": "biochemical", "details": "5 min", "method": "The ABTS free radical scavenging rate of EPSF-starch was measured as follows: 100 mg of ABTS and 34.4 mg of potassium persulfate were dissolved in 25 mL of distilled water. They were shaken well, and stored at ambient temperature in dark for 12-16 hours.\nEPSFs in Example 1 and EGCG in Comparative Example 1 were dispersed uniformly in methanol, obtaining dispersions with mass concentrations of 2 μg/mL, 4 μg/mL, 6 μg/mL, 8 μg/mL, 10 μg/mL and 12 μg/mL. The corn starch and EPSF-starch in Example 1, as well as the EGCG-starch in Comparative Example 1, were uniformly dispersed in methanol obtaining dispersions with mass concentrations of 0.156 mg/mL, 0.313 mg/mL, 0.625 mg/mL, 1.25 mg/mL, and 2.50 mg/mL. 1.0 mL of the above sample solutions and 3.0 mL of the ABTS free radical working solution were added to the test tube in sequence, and they were shaken well, and reacted at ambient temperature in dark for 5 minutes. The absorbance A1 thereof was measured at 734 nm. The sample solutions were replaced with methanol and the absorbance A0 thereof was measured according to the above method. EGCG, starch, and EGCG-starch functioned as control groups, and the ABTS free radical scavenging rates thereof were determined according to the above method. Experiment of each group was repeated three times, and the ABTS free radical scavenging rate of each sample was calculated according to Equation 2.\n[formula] • where A0 represents the absorbance of a mixture of the sample dispersion and methanol; and A1 represents the absorbance of the sample dispersion and ABTS radical solution."}},
  "data": [
    {"substance": "epigallocatechin-3-gallate [EGCG]", "values": [
      {"measurement": "DPPH free radical scavenging rate", "setting": "[1]; sample concentration 2 μg/ml in methanol", "value": "21.57 ± 0.04", "unit": "%"},
      {"measurement": "DPPH free radical scavenging rate", "setting": "[1]; sample concentration 4 μg/ml in methanol", "value": "50.98 ± 0.25", "unit": "%"},
      {"measurement": "DPPH free radical scavenging rate", "setting": "[1]; sample concentration 6 μg/ml in methanol", "value": "67.85 ± 4", "unit": "%"},
      {"measurement": "DPPH free radical scavenging rate", "setting": "[1]; sample concentration 8 μg/ml in methanol", "value": "88.44 ± 0.27", "unit": "%"},
      {"measurement": "DPPH free radical scavenging rate", "setting": "[1]; sample concentration 10 μg/ml in methanol", "value": "85.67 ± 2.01", "unit": "%"},
      {"measurement": "DPPH free radical scavenging rate", "setting": "[1]; sample concentration 12 μg/ml in methanol", "value": "87.39 ± 2.62", "unit": "%"},
      {"measurement": "DPPH free radical scavenging rate", "setting": "[1]; sample concentration 2.5 mg/ml in methanol", "value": 90, "unit": "%"},
      {"measurement": "ABTS free radical scavenging rate", "setting": "[2]; sample concentration 2 μg/mL in methanol", "value": "51.91 ± 2.1", "unit": "%"},
      {"measurement": "ABTS free radical scavenging rate", "setting": "[2]; sample concentration 4 μg/mL in methanol", "value": "78.8 ± 1.73", "unit": "%"},
      {"measurement": "ABTS free radical scavenging rate", "setting": "[2]; sample concentration 6 μg/mL in methanol", "value": "91.49 ± 1.23", "unit": "%"},
      {"measurement": "ABTS free radical scavenging rate", "setting": "[2]; sample concentration 8 μg/mL in methanol", "value": "94.38 ± 2.07", "unit": "%"},
      {"measurement": "ABTS free radical scavenging rate", "setting": "[2]; sample concentration 10 μg/mL in methanol", "value": "95.17 ± 1.8", "unit": "%"},
      {"measurement": "ABTS free radical scavenging rate", "setting": "[2]; sample concentration 12 μg/mL in methanol", "value": "95.24 ± 1.69", "unit": "%"}
    ]}
  ]
}
